In ChEMBL document CHEMBL3045879, “Isolation of long-chain esters from the rhizome of Polygonatum verticillatum by potent tyrosinase inhibition” (Med Chem Res, 2013):

Target: T1, Tyrosinase (Agaricus bisporus, UniProt O42713)
T1 sequence (O42713 whole entry): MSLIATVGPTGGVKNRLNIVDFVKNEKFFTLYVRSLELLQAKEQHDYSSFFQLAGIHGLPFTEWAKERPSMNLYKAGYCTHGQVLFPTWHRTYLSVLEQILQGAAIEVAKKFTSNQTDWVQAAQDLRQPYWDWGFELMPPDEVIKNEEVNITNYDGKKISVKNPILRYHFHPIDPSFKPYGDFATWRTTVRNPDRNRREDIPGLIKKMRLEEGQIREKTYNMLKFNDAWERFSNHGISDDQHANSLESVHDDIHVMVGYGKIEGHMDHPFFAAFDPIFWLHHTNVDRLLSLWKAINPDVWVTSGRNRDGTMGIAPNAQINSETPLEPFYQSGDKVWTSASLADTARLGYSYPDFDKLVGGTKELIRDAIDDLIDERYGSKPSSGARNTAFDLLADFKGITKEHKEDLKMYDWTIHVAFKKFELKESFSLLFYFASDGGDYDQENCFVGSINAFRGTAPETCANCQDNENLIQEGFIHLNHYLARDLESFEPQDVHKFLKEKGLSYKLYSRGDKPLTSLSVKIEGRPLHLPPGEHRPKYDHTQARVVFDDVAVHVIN
Test: Inhibition of Agaricus bisporus (mushroom) tyrosinase assessed as decrease in dopachrome formation using L-DOPA as substrate preincubated with enzyme for 10 min prior to substrate addition measured for 10 min by microplate reader analysis

IC50 [µM]	SMILES
9.45	CCCCCCCCCCCCCCC(=O)OCC(O)CO (configuration not stated) [2',3'-DIHYDROXY PROPYL PENTADECANOATE]
22.3	CCCCCCCCCCCCCCC(=O)OCCC [PROPYL PENTADECANOATE]
